Legend:
[1] = biological target: RBM25 (Homo sapiens, UniProt P49756); test: Gel mobility shift assay; type: binding; settings: 0.2 nM RNA, variable amounts of protein, 30 min at 4° C.
Protocol: (§1) Gel mobility shift assays: The biotinylated wild-type ([…]) and mutant ([…]) RNA substrates (SEQ ID NOs: 32 and 33, respectively) were synthesized by Invitrogen. Binding of biotinylated RNA to RBM25 was achieved by incubating 0.2 nM RNA and variable amounts of protein for 30 min at 4° C. in 20 μL of binding buffer (10 mM Tris-HCl, 10 mM HEPES, 100 mM NaCl, 0.1% Triton X-100, 2 mM MgCl2, 1.5 mM dithiothreitol (DTT) pH 7.5, 7% glycerol). For the competition assays, a molar excess of unlabeled competitor RNAs at various fold levels was added to the pre-incubated reaction mixture. Samples were fractionated in a native 5% polyacrylamide gel, transferred to Hybond-N+nylon membrane (Amersham Biosciences), and detected with a LightShift chemiluminescent electrophoretic mobility shift assay kit (Pierce) by following the manufacturer's protocol.
(§2) Gel mobility shift assays were performed as described previously with modification (Shang et al., Am. J. Physiol. Cell. Physiol., 292:C886-95, 2007, the disclosure of which is incorporated herein by reference in its entirety.). The biotinylated wild-type ([…]) and mutant ([…]) RNA substrates (SEQ ID NOs: 32 and 33, respectively) were synthesized. Binding of biotinylated RNA to RBM25 was achieved by incubating 0.2 nM RNA and variable amounts of protein for 30 min at 4° C. in 20 μL binding buffer. […]

[2] = tested on: sXBP1; test: RT-PCR of sXBP1 expression; type: cell-based, human; settings: Ang II-treated
Protocol: (§3) Real-Time PCR quantification: Total RNA was isolated from cultured cells using the Qiagen RNeasy Mini Kit (Valencia, Calif.). Total RNA from human ventricles was isolated using the RNeasy Lipid Tissue Mini Kit (Qiagen). Reverse transcription was carried out at 42° C. for 1 h with Powerscript reverse transcriptase (Roche). β-Actin was used as a reference when making quantitative comparison.
(§4) Hypoxia and AngII were used to increase abnormal SCN5A splicing. The expressions of PERK and sXBP1 were measured by RT-PCR. […] To test if this upregulation of one arm of the UPR was mediated by SCN5A mRNA variants, exogenous E28C and E28D were introduced. The Jurkat cells were divided into four experiment groups: normal control, empty vector control, variant E28C overexpressioned cells, and variant E28D overexpressioned cells. The expression of PERK was measures by RT-PCR in each group at the time point 48 h. […] The upregulation of PERK in Jurkat cells was further confirmed by Western blot.

[3] = tested on: SCN5A variant E28D; test: RT-PCR of SCN5A variant E28D; type: cell-based, human; settings: Ang II treatment
Protocol: as §3
(§5) Changes in hLuc7A and RBM25 correlated with SCN5A E28C and E28D variant abundances. Under hypoxia, the expression of SCN5A variants E28C and E28D were increased by 373.5±5.7% and 636.2±7.6%, respectively (p<0.05), while the expressions of the full length SCN5A transcript was decreased by 64.6±4.9% (p<0.05). With Ang II treatment, the expressions of the variants were increased by 291.4±5.2% and 433.7±6.5% for E28C and E28D, respectively (p<0.05), while the expression of the full length SCN5A transcipt was decreased by 78.9±5.4% (p<0.05).
(§6) The siRNA knockdown efficiency was estimated by both RT-PCR and Western blot and was not less than 50%. The expressions of SCN5A and the variants E28C and E28D were measured by RT-PCR in all experiment groups at time points of maximal siRNA effect.

[4] = tested on: major UPR components (PERK, calnexin, CHOP); test: Induction of major UPR components in hESC-CMs; type: cell-based, human; settings: 100 nmol/L Ang II
Text: The correlation of expression changes among PERK, major human embryonic stem cell-derived cardiomyocytes (hESC-CMs). […] E28C and E28D constructs were transduced to overexpress the truncated proteins.
Finally, downregualtion of PERK prevented the loss of full-length SCN5A mRNA abundance with these stimuli.

[5] = tested on: hLuc7A; test: Real-time RT-PCR of hLuc7A mRNA in Jurkat cells and H9 hESC-cardiomyocytes; type: cell-based, human; settings: Ang II-treated (100 nmol/L)
Protocol: (§7) Cell culture assays: Jurkat T cell clones E6.1 (ATCC, Manassas, Va.) were cultured at 37° C. and 5% CO2 in RPMI 1640 medium supplemented with 10% heat inactivated fetal calf serum, 4 mM glutamine, 75 units/mL streptomycin and 100 units/mL penicillin. WA09 (H9) human undifferentiated ESCs were obtained through the National Stem Cell Bank and maintained on irradiated mouse embryonic fibroblasts at 37° C. with 5% CO2. The culture medium consisted of DMEM/F12 (Invitrogen, Carlsbad, Calif.) supplemented with 15% knockout serum, 1% non-essential amino acids, 1 mmol/L L-glutamine, 0.1 mmol/L β-mercaptoethanol, and basic fibroblast growth factor of 20 ng/mL.
as §3
(§8) Because AngII and hypoxia are common in heart failure, we investigated whether these two conditions could influence RBM25 and hLuc7A levels. […] The Jurkat cells and H9 hESC-CMs were divided into three experiment groups: normoxia, hypoxia-treated (1% O2), and Ang II-treated (100 nmol/L). […]

[6] = tested on: full length SCN5A transcript; test: RT-PCR of full length SCN5A transcript; type: cell-based, human; settings: Ang II treatment
Protocol: as §3, §5
Hypoxia and AngII were used to increase abnormal SCN5A splicing. The expressions of PERK and sXBP1 were measured by RT-PCR. […] To test if this upregulation of one arm of the UPR was mediated by SCN5A mRNA variants, exogenous E28C and E28D were introduced. The Jurkat cells were divided into four experiment groups: normal control, empty vector control, variant E28C overexpressioned cells, and variant E28D overexpressioned cells. […]

[7] = tested on: RBM25; test: Western blot of RBM25 in Jurkat cells; type: cell-based, human; settings: Ang II 100 nmol/L, vs control group
Text: (§9) Western blot analysis: The Mini-PROTEAN® Tetra Electrophoresis System from BioRad was used for Western blot analysis. Anti-Nav1.5 antibody, recognizing all channel variants, was provided by Dr. Peter Mohler (University of Iowa, Iowa City, Iowa). Anti-RBM25 antibody was provided by Dr. Huang (Dana-Farber Cancer Institute, Harvard, Boston, Mass.). Anti-PERK and hLuc7A antibodies were purchased from R&D Systems (Minneapolis, Minn.) and Millipore, (Billerica, Mass.).
(§10) The upregulation of splicing factors RBM25 and hLuc7A in Jurkat cells was further confirmed by Western blot. The Jurkat cells were divided into three experiment groups: normoxia, hypoxia-treated (1% O2), and Ang II-treated (100 nmol/L). The expressions of RBM25 and hLuc7A were analyzed by Western blot at three time points (12 h, 24 h, and 48 h) for hypoxia-treated group and at four time points (24 h, 48 h, 72 h, and 96 h) for Ang II-treated group. […] The density of hLuc7A was increased by 242.3±9.5%, 236.1±8.4% and 268.8±9.8% in hypoxia-treated group at time points 12 h, 24 h and 48 h, respectively, and was increased by 256.3±9.1%, 246.5±8.6%, 279.7±9.3% and 283.6±9.9% in Ang II-treated group at time points 24 h, 48 h, 72 h and 96 h, respectively (p<0.05).

[8] = tested on: PERK; test: RT-PCR of PERK expression; type: cell-based, human; settings: Ang II-treated, 48 h
Protocol: as §3, §4

[9] = tested on: SCN5A variant E28C; test: RT-PCR of SCN5A variant E28C; type: cell-based, human; settings: Ang II treatment
Protocol: as §3, §5, §6

[10] = tested on: PERK; test: Western blot of PERK in Jurkat cells; type: cell-based, human; settings: Ang II-treated, vs control group
Text: as §9, §4

[11] = tested on: RBM25; test: Real-time RT-PCR of RBM25 mRNA in Jurkat cells and H9 hESC-cardiomyocytes; type: cell-based, human; settings: Ang II-treated (100 nmol/L)
Protocol: as §7, §3, §8

[12] = tested on: hLuc7A; test: Western blot of hLuc7A in Jurkat cells; type: cell-based, human; settings: Ang II 100 nmol/L, vs control group
Text: as §9, §10

[13] = biological target: T1, RBM25 (UniProt P49756 SEQ:1-843); test: EMSA; concentration-dependent; 0.2 nM RNA, 10 mM Tris-HCl, 10 mM HEPES, 100 mM NaCl, 2 mM MgCl2, pH 7.5, 4 C; unlabeled competitor assay also run; settings: label: biotin
Protocol: as §1, with “MgCl₂,” for “MgCl2,”
as §2

[14] = biological target: T1, RBM25; test: EMSA; mutated canonical site; 0.2 nM RNA, 100 mM NaCl, 2 mM MgCl2, pH 7.5, 4 C; settings: label: biotin
Protocol: as §1, with “MgCl₂,” for “MgCl2,”
as §2

RBM25 (Homo sapiens, UniProt P49756), sequence (P49756 whole entry): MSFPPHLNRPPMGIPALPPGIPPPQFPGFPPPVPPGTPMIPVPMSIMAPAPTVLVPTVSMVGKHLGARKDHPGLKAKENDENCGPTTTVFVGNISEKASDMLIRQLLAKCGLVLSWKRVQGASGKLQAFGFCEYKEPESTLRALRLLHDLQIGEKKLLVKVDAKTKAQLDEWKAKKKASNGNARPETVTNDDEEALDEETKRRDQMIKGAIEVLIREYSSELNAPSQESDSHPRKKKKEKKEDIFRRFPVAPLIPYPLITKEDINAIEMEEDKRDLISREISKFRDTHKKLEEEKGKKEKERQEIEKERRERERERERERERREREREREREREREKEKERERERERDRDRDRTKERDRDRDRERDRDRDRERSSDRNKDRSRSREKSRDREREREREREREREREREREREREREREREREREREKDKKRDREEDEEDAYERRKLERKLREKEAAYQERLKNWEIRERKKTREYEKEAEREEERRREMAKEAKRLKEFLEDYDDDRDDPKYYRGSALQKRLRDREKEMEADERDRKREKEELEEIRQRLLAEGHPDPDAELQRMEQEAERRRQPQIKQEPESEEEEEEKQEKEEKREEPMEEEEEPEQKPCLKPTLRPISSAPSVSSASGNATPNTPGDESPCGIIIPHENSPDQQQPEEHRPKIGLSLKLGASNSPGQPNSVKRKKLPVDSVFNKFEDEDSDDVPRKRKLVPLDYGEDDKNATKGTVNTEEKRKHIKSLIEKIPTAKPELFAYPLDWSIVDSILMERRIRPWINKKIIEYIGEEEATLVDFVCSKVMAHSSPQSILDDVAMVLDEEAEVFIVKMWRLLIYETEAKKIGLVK
T1 sequence (P49756 whole entry): as above

Molecule: CAGCAGGCGGGCAGCGGCCU (RNA, backbone not given here; biotinylated RNA) [wild-type RNA substrate]
- binding of RBM25 to biotinylated RNA substrate [1]: bound the wild-type SCN5A sequence in a concentration-dependent manner

Molecule: CAGCAGGUUAGAGGCGGCCU (RNA, backbone not given here; biotinylated RNA) [mutant RNA substrate]
- binding of RBM25 to biotinylated RNA substrate [1]: inability of RBM25 to bind

Molecule: angiotensin II (DRVYIHPF; Angiotensin-2; UniProt P01019 25-32, looked up) [Ang II, angiotensin II, used at 100 nmol/L to treat Jurkat cells and hESC-CMs]
- expression upregulation of sXBP1 [2]: no expression upregulation
- expression of SCN5A variant E28D increased by [3]: 433.7±6.5%
- induction of major UPR components (PERK, calnexin, CHOP) [4]: could induce major UPR components
- expression of hLuc7A increased by ([5]; ES cells (H9 hESC-CMs)): 181.2±6.7%
- expression of hLuc7A increased by ([5]; Jurkat cells): 187.3±7.9%
- expression of the full length SCN5A transcript decreased by [6]: 78.9±5.4%
- density of RBM25 increased by ([7]; 24 h): 209.5±8.8%
- density of RBM25 increased by ([7]; 48 h): 212.6±9.7%
- density of RBM25 increased by ([7]; 72 h): 181.3±8.3%
- density of RBM25 increased by ([7]; 96 h): 198.8±8.7%
- expression of PERK increased by [8]: 14.2±0.6 fold
- expression of SCN5A variant E28C increased by [9]: 291.4±5.2%
- density of PERK increased by [10]: 383.2±10.7%
- expression of RBM25 increased by ([11]; ES cells (H9 hESC-CMs)): 42.1±4.7%
- expression of RBM25 increased by ([11]; Jurkat cells): 50.8±4.9%
- density of hLuc7A increased by ([12]; 24 h): 256.3±9.1%
- density of hLuc7A increased by ([12]; 48 h): 246.5±8.6%
- density of hLuc7A increased by ([12]; 72 h): 279.7±9.3%
- density of hLuc7A increased by ([12]; 96 h): 283.6±9.9%

Molecule: CAGCAGGCGGGCAGCGGCCU (ssRNA) [SCN5A exon 28 wild-type RNA]
- binding result [13]: binds

Molecule: CAGCAGGUUAGAGGCGGCCU (ssRNA) [SCN5A exon 28 mutant RNA]
- binding result [14]: no binding

From US20120129179A1, “SCN5A SPLICING FACTORS AND SPLICE VARIANTS FOR USE IN DIAGNOSTIC AND PROGNOSTIC METHODS” (THE BOARD OF TRUSTEES OF THE UNIVERSITY OF ILLINOIS, priority 2009, published 2012)
